Measured values from patent publication US11261230B2, “Synthetic somatostatin receptor ligands” (TEL HASHOMER MEDICAL RESEARCH INFRASTRUCTURE AND SERVICES …, priority 2014, dated 2022).
*1 amine or outer side, *2 acyl side, *3 side chain or, on linkers, in order; H or OH if unused. Where a SMILES comes first, the peptide text is derived from it. Bridges are numbered along the chain shown (N, C = ends). [ ]: non-standard residue; d: D form. The star is where a group is joined. FITC = O=C1OC2(c3ccc(O)cc3Oc3cc(O)ccc32)c2ccc(NC(=S)*)cc21; N(2-mercaptoethyl)Gly = O=C(CN(CCS[*:3])[*:1])[*:2]; Aib = CC(C)(N)C(=O)O; GABA = NCCCC(=O)O

Tests used:
[1] = molecular target: T1, human SSTR1 (Homo sapiens, UniProt P30872); test: Binding to transfected HEK cells expressing a single SSTRx subtype, FACS
T1 construct: expressed in transfected cells; host or cells: HEK-293, transient transfection, pcDNA 3.1
Experimental: (§1) The affinity of compounds 1-16 to each of the five SSTRx was tested using an in vitro model of transfected cell lines (HEK—human embryonic kidney), each expressing a single human SSTRx subtype. Biological activity assessment of the compounds to define a specific affinity to each subtype was performed by FACS and fluorescence imaging methods.
(§2) Human SSTRx were expressed in the cells by transient transfection. Each SSTR was expressed separately, creating five different cell lines using human gene transcript.
(§3) The transfection process is illustrated in FIG. 1. The transient transfection process was carried out before each experiment. Briefly, HEK cells were cultured in standard cell growth conditions. For testing, the cells were transferred into 96-well plates. The tested compounds were dissolved in DMSO and then diluted in a buffer solution to a final DMSO concentration of 5% as a composition according to the teachings herein. Various amounts of the thus-prepared compositions were added to the cells in medium in the 96-well plates and allowed to incubate for between 1 and 24 hours. Binding was determined using fluorescent microscopy and FACS.
(§4) Qualitative assessment of binding efficiency was done by visual inspection and digital photography using an inverted fluorescent microscope. Quantitative assessment was done using FACS.
(§5) HEK-293 cells (human embryonic kidney) were grown in Dulbecco's modified Eagle's medium (DMEM) supplemented with 4 mM glutamine, 10% fetal bovine serum (FBS) and 100 units/ml penicillin/streptomycin at 37° C./5% carbon dioxide. One day prior to transfection, the cells were trypsinized, counted and plated at a density of 3×10^5 per 35 mm diameter dish. Until 70% confluency, cells were transiently transfected with the pcDNA 3.1 vector bearing the coding region for the human SSTR human somatostatin receptor subtypes SSTR1-SSTR5. Transfections were carried out with JetPei transfection reagent (Polyplus-transfection, NY, USA) according to the manufacturer's recommendation. Briefly, 2 micrograms of plasmid DNA and 6 microliter of JetPei transfection reagent were used for each transfection. Each of the components were resuspended in 100 microliter of 150 mM NaCl, mixed and incubated for 25 minutes at room temperature and after incubation added to cells.
(§6) Cells were then seeded in a 96-well flat-bottom microplate (Costar, Corning, N.Y.) at a concentration of 5×10^4 cells/well. Twelve hours later, the supernatant was removed and replaced with fresh DMEM containing various (in the nM range) concentrations of tested compounds 1-16. The cells were incubated for additional time intervals ranging from 0.5-24 hr. At the end of the incubation period, supernatant was discarded and the cells were washed twice with cold PBS. The plates were examined using IX81 inverted microscope (Olympus, Japan) equipped with […] digital camera. Additionally, a FACS assay was used for quantitative analysis.
(§7) Quantitative assessment of binding affinity of Compounds 1-16 was performed by FACS in the transfected HEK cell model.
(§8) Quantitatively, specific binding affinity was assessed as the percentage of double stained [(GR=green and red indicating transfection)/(R is total red) less (G is green indicating unspecific binding)]: specific binding affinity=[GR/R−G]

[2] = molecular target: T2, human SSTR2 (Homo sapiens, UniProt P30874); test: as above
T2 construct: expressed in transfected cells; host or cells: HEK-293, transient transfection, pcDNA 3.1
Experimental: as §1, §2, §3, §4, §5, §6, §7, §8

[3] = molecular target: T3, human SSTR3 (Homo sapiens, UniProt P32745); test: as above
T3 construct: expressed in transfected cells; host or cells: HEK-293, transient transfection, pcDNA 3.1
Experimental: as §1, §2, §3, §4, §5, §6, §7, §8

[4] = molecular target: T4, human SSTR4 (Homo sapiens, UniProt P31391); test: as above
T4 construct: expressed in transfected cells; host or cells: HEK-293, transient transfection, pcDNA 3.1
Experimental: as §1, §2, §3, §4, §5, §6, §7, §8

[5] = molecular target: T5, human SSTR5 (Homo sapiens, UniProt P35346); test: Binding to transfected HEK cells expressing a single SSTRx subtype, FACS and fluorescence microscopy
T5 construct: expressed in transfected cells; host or cells: HEK-293, transient transfection, pcDNA 3.1
Experimental: as §1, §2, §3, §4, §5, §6, §7, §8

[6] = tested on: SSTR1-SSTR5; test: Binding specificity across the five SSTRx transfected HEK cell lines; set-up: species or system human; conditions: conclusions drawn from Table 2-A
Experimental: Biological activity assessment of the compounds to define a specific affinity to each subtype was performed by FACS and fluorescence imaging methods. Human SSTRx were expressed in the cells by transient transfection. Each SSTR was expressed separately, creating five different cell lines using human gene transcript. The transfection process is illustrated in FIG. 1. The transient transfection process was carried out before each experiment. Briefly, HEK cells were cultured in standard cell growth conditions. For testing, the cells were transferred into 96-well plates. The tested compounds were dissolved in DMSO and then diluted in a buffer solution to a final DMSO concentration of 5% as a composition according to the teachings herein. Various amounts of the thus-prepared compositions were added to the cells in medium in the 96-well plates and allowed to incubate for between 1 and 24 hours. Binding was determined using fluorescent microscopy and FACS. Cells were then seeded in a 96-well flat-bottom microplate (Costar, Corning, N.Y.) at a concentration of 5×10^4 cells/well. […] Additionally, a FACS assay was used for quantitative analysis. […] Quantitatively, specific binding affinity was assessed as the percentage of double stained [(GR=green and red indicating transfection)/(R is total red) less (G is green indicating unspecific binding)]: specific binding affinity=[GR/R−G]

[7] = tested on: PANC-1 tumors; conditions: mouse, in vivo
Experimental: Five different pharmaceutical compositions were prepared, each by dissolving 1 mg of a different Somatostatin receptor ligand in 1 liter PBS.
Solid human-derived tumors were induced in 15 nude mice by subcutaneous injection of a suspension containing ˜5□10^5 human cancer cells (PANC-1) into the flank area of the mice.
2-3 weeks after the injection of the cancer cells, it was observed that the mice developed solid tumors with diameters of approximately 5-10 mm.
0.3 ml of each one of the five pharmaceutical compositions were systemically administered to three of the fifteen xenograft mice by injection into the tail vein using a 30 G needle.
The fifteen mice were sacrificed and from the bodies tumors, pancreas, spleen, kidney and liver were harvested.
The fluorescence of the harvested tissue was determined using the Maestro™ in vivo fluorescence imaging system (Cambridge Research & Instrumentation, Inc., Woburn, Mass., USA).

[8] = FACS, transfected HEK, specific binding affinity = percentage double stained [GR/R−G], 0 = no binding detected
[9] = Table 2 normalized according to the highest binding affinity of that compound
[10] = Table 2 normalized to Compound 1 (=100)

T3 sequence (P32745 whole entry): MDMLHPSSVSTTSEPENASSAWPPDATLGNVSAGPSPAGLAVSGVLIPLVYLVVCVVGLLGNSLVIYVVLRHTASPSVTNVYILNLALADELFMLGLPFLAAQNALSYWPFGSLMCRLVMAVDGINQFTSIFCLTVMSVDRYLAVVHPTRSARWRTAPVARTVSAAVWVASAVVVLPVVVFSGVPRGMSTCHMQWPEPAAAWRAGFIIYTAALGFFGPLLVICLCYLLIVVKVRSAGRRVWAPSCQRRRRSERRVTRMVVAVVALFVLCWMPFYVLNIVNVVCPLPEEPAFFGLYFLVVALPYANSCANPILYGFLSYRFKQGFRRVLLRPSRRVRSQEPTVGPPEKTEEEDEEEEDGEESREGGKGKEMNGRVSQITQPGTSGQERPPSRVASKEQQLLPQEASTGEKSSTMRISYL
T4 sequence (P31391 whole entry): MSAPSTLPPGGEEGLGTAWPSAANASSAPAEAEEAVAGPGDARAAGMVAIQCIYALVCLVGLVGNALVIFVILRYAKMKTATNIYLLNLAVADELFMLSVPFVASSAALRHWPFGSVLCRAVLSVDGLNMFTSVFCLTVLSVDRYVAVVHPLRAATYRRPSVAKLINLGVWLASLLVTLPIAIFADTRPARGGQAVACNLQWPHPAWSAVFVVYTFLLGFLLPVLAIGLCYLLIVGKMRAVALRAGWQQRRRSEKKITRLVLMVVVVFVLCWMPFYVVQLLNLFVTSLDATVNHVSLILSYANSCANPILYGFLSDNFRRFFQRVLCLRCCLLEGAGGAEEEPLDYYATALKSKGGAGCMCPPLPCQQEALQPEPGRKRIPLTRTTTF
T2 sequence (P30874 whole entry): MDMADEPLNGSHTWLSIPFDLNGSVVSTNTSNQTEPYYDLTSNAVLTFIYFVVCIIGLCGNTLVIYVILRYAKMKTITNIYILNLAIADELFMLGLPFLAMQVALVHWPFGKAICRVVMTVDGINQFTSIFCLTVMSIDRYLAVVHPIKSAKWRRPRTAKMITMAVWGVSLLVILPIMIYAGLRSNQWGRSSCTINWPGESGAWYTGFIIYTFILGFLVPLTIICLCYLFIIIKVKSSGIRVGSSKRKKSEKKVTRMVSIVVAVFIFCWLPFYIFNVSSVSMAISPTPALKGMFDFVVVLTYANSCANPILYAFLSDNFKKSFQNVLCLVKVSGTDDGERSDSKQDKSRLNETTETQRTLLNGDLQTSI
T5 sequence (P35346 whole entry): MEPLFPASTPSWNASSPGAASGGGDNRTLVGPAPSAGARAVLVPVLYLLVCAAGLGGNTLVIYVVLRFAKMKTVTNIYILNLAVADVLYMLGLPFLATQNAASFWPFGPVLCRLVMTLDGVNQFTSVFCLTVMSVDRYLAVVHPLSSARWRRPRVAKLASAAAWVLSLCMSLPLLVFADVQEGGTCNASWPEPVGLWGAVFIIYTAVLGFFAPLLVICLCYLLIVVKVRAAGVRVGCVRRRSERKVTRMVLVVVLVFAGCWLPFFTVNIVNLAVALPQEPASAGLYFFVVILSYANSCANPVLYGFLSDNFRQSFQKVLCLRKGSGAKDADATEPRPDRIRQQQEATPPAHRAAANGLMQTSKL
T1 sequence (P30872 whole entry): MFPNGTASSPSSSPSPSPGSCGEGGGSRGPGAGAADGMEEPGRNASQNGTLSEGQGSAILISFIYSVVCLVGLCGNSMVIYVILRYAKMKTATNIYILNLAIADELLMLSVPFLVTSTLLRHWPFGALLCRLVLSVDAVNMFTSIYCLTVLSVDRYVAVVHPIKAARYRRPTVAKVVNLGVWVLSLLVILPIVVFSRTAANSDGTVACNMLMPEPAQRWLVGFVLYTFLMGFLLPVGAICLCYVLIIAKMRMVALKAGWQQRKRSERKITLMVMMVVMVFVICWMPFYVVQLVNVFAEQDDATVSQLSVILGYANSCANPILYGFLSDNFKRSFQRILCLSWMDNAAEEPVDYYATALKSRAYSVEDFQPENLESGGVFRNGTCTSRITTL

| Structure (SMILES) | Relative binding affinity SSTR1 [1, 8] | Adjusted binding affinity SSTR1 [1, 9] | Binding affinity to SSTR1 relative to Compound 1 [1, 10] | Relative binding affinity SSTR2 [2, 8] | Adjusted binding affinity SSTR2 [2, 9] | Binding affinity to SSTR2 relative to Compound 1 [2, 10] | Relative binding affinity SSTR3 [3, 8] | Adjusted binding affinity SSTR3 [3, 9] | Binding affinity to SSTR3 relative to Compound 1 [3, 10] | Relative binding affinity SSTR4 [4, 8] | Adjusted binding affinity SSTR4 [4, 9] | Binding affinity to SSTR4 relative to Compound 1 [4, 10] | Relative binding affinity SSTR5 [5, 8] | Adjusted binding affinity SSTR5 [5, 9] | Binding affinity to SSTR5 relative to Compound 1 [5, 10] | Binding specificity among the five SSTRx (in words) [6] | Intensity in healthy tissue (in words) [7] |
| --- | --- | --- | --- | --- | --- | --- | --- | --- | --- | --- | --- | --- | --- | --- | --- | --- | --- |
| C[C@@H](O)[C@@H]1NC(=O)C(C)(C)NC(=O)[C@@H](Cc2c[nH]c3ccccc23)NC(=O)[C@H](Cc2c[nH]c3ccccc23)NC(=O)[C@H](Cc2ccccc2)NC(=O)[C@@H](NC(=O)[C@@H](Cc2ccccc2)NC(=O)CCCNC(=S)Nc2ccc3c(c2)C(=O)OC32c3ccc(O)cc3Oc3cc(O)ccc32)CSSCCN(CC(N)=O)C(=O)[C@H](Cc2ccccc2)NC1=O [Compound 13, FITC-GABA-D-Phe-Cys-Phe-Trp-D-Trp-Aib-Thr-Phe-GlyS2] ({FITC-GABA}-[dF]CFW[dW][Aib]TF[N(2-mercaptoethyl)Gly]-NH2; disulfide 2-9) | 1 | 0.11 | 33 | 0 | 0 | 0 | 6 | 0.67 | 35 | 4 | 0.44 | 18 | 9 | 1 | 32 | to SSTR3 and SSTR5 and not SSTR1, SSTR2 and SSTR4 |  |
| C[C@@H](O)[C@@H]1NC(=O)[C@H](CCCCN)NC(=O)[C@@H](Cc2c[nH]c3ccccc23)NC(=O)[C@H](Cc2ccccc2)NC(=O)[C@H](CCCNC(=N)N)NC(=O)[C@@H](NC(=O)CCCNC(=S)Nc2ccc3c(c2)C(=O)OC32c3ccc(O)cc3Oc3cc(O)ccc32)CSSCCN(CC(N)=O)C(=O)[C@H](Cc2ccccc2)NC1=O [Compound 9, FITC-GABA-Cys-Arg-Phe-D-Trp-Lys-Thr-Phe-GlyS2] ({FITC-GABA}-CRF[dW]KTF[N(2-mercaptoethyl)Gly]-NH2; disulfide 1-8) |  |  |  |  |  |  |  |  |  |  |  |  |  |  |  |  | undetectable in the healthy tissues |
